Laboratory results from paper PMC12048447, “PANTAX: a phase Ib clinical trial of the efflux pump inhibitor SCO-101 in combination with gemcitabine and nab-paclitaxel in non-resectable or metastatic pancreatic cancer” (Investigational New Drugs, 2025).

Experiments:
PANC-1-Pac cells = experiment: MTT cell viability and ZIP synergy in paclitaxel-resistant PANC-1-Pac cells; assay type: cell-based, human; conditions: for ZIP synergy score with paclitaxel: PANC-1-Pac cells, score above 10 indicates synergy
Description: A paclitaxel-sensitive human PDAC cell line, PANC-1, was obtained (ATCC, CRL-1469) and the derived paclitaxel-resistant PANC-1-Pac cell line was established by gradually increasing concentrations of paclitaxel over a period of 2–4 months. Standard MTT and crystal violet assays were applied to evaluate the effect of treatment with either combinations of SCO-101 and paclitaxel or SRPK1-inhibitor and paclitaxel. Details are presented in the Online Resource.
Statistical analyses were mainly descriptive and included mean, median, range, and 95% CIs. Kaplan–Meier plots were constructed using Stata version 18 (StataCorp, 2023). In the preclinical study, the zero interaction potency (ZIP) synergy score was calculated as described by Yadav et al., to quantify the deviation from the expectation of zero interaction between drugs. A ZIP synergy score above 10 indicates synergy.
A paclitaxel-sensitive human PDAC cell line PANC-1 was obtained (ATCC, CRL-1469) and the derived paclitaxel-resistant PANC-1-Pac cell line was established by gradually increasing concentrations of paclitaxel over a period of 2-4 months. Standard MTT and crystal violet assays were applied to evaluate the effect of treatment with either combinations of SCO-101/paclitaxel or SRPK1 inhibitor/paclitaxel.
The selection began at 1 nM, increased to 2 nM and 4 nM, and ended at 8 nM. For each drug concentration the cells were kept for three passages. To evaluate the effect of the treatment either a Crystal Violet assay or MTT (3-(4,5-dimethylthiazol-2-yl)-2,5-diphenyltetrazolium bromide) assay were applied.
The MTT was conducted according to standard conditions. In short, cells were seeded at a density of 7,000 cells/well into a 96-well. One day after seeding, the cells were experimentally treated. Control conditions consisted of either growth medium (‘untreated’) or DMSO diluted in growth medium. All treatments were performed in triplicates. The cells were then kept in the CO2 incubator at 37 °C for 72 hours and plates were incubated with 100μl 1:10 MTT (0.5 mg/ml dissolved in phosphate buffered saline) for 3 hours and hereafter stopped using 100μl/well stop buffer (50g Sodium Dodecyl Sulphate, 245 mL MiliQ H2O, 5mL 1.0 N HCl was added to dissolve the formazan crystals overnight. Optical densities were measured at 570 and 670 nm.
Experiments with 4 different concentrations of either SCO-101 or paclitaxel and their combinations were applied to test for synergy among these two compounds in both the PANC-1 parental and -Paclitaxel resistant cells. SCO-101 was applied in 10, 20, 40 and 50 µM whereas paclitaxel was tested in 5, 10, 15 and 20 nM for a total of 144 h, where drug was only present in the first 72h (sFig 2). The SRPK1 inhibitor SPHINX31 was tested at 0.1; 0.5; 1 and 5 µM. The SRPK1 inhibitor SRPIN was tested at 1; 5; 10 and 50 µM. Both inhibitors were tested in combination with 5, 10, 15 and 20 nM Paclitaxel.
PANC-1-Pac cells treated with paclitaxel and SRPIN340 with four different concentrations of each for a total of 144 hours. Cell viability was evaluated by MTT assays and reported as percentage of untreated control (medium). Error bars indicate percentage standard deviation.

PDAC patients [1] = tested on: PDAC patients; parameters: method as in PMID 16034525; conditions: clinical phase II study; cited from earlier work
PDAC patients [2] = tested on: PDAC patients; parameters: method as in PMID 20107864; conditions: phase II trial; cited from earlier work
[3] = tested on: patients with metastatic PDAC; parameters: method as in PMID 24131140; conditions: MPACT phase III; cited from earlier work

O=C(Nc1cc(C(F)(F)F)ccc1N1CCN(Cc2ccccn2)CC1)c1ccc(-c2ccncc2)o1 [SPHINX31]
ZIP synergy score with paclitaxel (PANC-1-Pac cells; SPHINX31 + paclitaxel for 144 h): 57.037

CC(=O)O[C@H]1C(=O)[C@@]2(C)[C@H]([C@H](OC(=O)c3ccccc3)[C@]3(O)C[C@H](OC(=O)[C@H](O)[C@@H](NC(=O)c4ccccc4)c4ccccc4)C(C)=C1C3(C)C)[C@]1(OC(C)=O)CO[C@@H]1C[C@@H]2O [paclitaxel]
effect on PANC-1-Pac cells (cell viability), drug alone (PANC-1-Pac cells; 72 h with drug + 72 h fresh media): dose-dependent effect
resistant phenotype to paclitaxel relative to parental PANC-1 control cell line (PANC-1-Pac cells; PANC-1-Pac vs PANC-1, MTT, 72 hours): five times higher

Cc1ccc(-c2cc(C(F)(F)F)nn2-c2ccc(S(N)(=O)=O)cc2)cc1 [celecoxib]
effect when combined with Gem and cisplatin (PDAC patients [1]): no apparent effect

O=c1c(-c2ccc(O)cc2)coc2cc(O)cc(O)c12 [genistein]
effect when added to erlotinib and Gem (PDAC patients [2]): no clear effect on survival

O=C(Nc1cc(C(F)(F)F)ccc1N1CCCCC1)c1ccncc1 [SRPIN340]
ZIP synergy score with paclitaxel (PANC-1-Pac cells; SRPIN340 + paclitaxel, 72 h with drug + 72 h fresh media): 21.4

Nc1ccn([C@@H]2O[C@H](CO)[C@@H](O)C2(F)F)c(=O)n1 [Gem, gemcitabine]
median overall survival (mOS) [3]: 6.7 months
objective response rate (ORR) [3]: 7%
